Data: PubChem BioAssay (NCI)
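Grown in 96-well plates, cells were treated for 48 hours with each compound at five concentrations. Insufficient inhibition: endpoint recorded as highest concentration tested. At the TGI there is no net growth.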

What was measured:
Experiment in all cases: NCI anticancer screen, dose series, 48 h
SK-MEL-5 melanoma = system: SK-MEL-5 melanoma
NCI-H460 lung = system: NCI-H460 lung
DU-145 prostate = system: DU-145 prostate
SF-295 CNS = system: SF-295 CNS
SK-MEL-2 melanoma = system: SK-MEL-2 melanoma
SF-268 CNS = system: SF-268 CNS
U251 CNS = system: U251 CNS
HS 578T breast = system: HS 578T breast
HOP-92 NSCLC = system: HOP-92 NSCLC
786-0 renal = system: 786-0 renal
UACC-257 melanoma = system: UACC-257 melanoma
TK-10 renal = system: TK-10 renal
HCT-116 colon = system: HCT-116 colon
MDA-N = system: MDA-N
LOX IMVI melanoma = system: LOX IMVI melanoma
OVCAR-8 ovarian = system: OVCAR-8 ovarian
HCT-15 colon = system: HCT-15 colon
ACHN renal = system: ACHN renal
KM12 colon = system: KM12 colon
SK-OV-3 ovarian = system: SK-OV-3 ovarian
HL-60(TB) leukemia = system: HL-60(TB) leukemia
SNB-19 CNS = system: SNB-19 CNS
SW-620 colon = system: SW-620 colon
M14 melanoma = system: M14 melanoma
NCI-H522 lung = system: NCI-H522 lung
IGROV1 ovarian = system: IGROV1 ovarian
OVCAR-4 ovarian = system: OVCAR-4 ovarian
MDA-MB-231 breast = system: MDA-MB-231 breast
UACC-62 melanoma = system: UACC-62 melanoma
NCI-H23 lung = system: NCI-H23 lung
MOLT-4 leukemia = system: MOLT-4 leukemia
MCF7 breast = system: MCF7 breast
SR leukemia = system: SR leukemia
NCI/ADR-RES ovarian = system: NCI/ADR-RES ovarian
OVCAR-3 ovarian = system: OVCAR-3 ovarian
A498 renal = system: A498 renal
NCI-H226 lung = system: NCI-H226 lung
COLO 205 colon = system: COLO 205 colon
SF-539 CNS = system: SF-539 CNS
MDA-MB-435 = system: MDA-MB-435
HT29 colon = system: HT29 colon
SK-MEL-28 melanoma = system: SK-MEL-28 melanoma
A549 NSCLC = system: A549 NSCLC
T-47D breast = system: T-47D breast
RPMI-8226 leukemia = system: RPMI-8226 leukemia
PC-3 prostate = system: PC-3 prostate
SN12C renal = system: SN12C renal
SNB-75 CNS = system: SNB-75 CNS
RXF 393 renal = system: RXF 393 renal
CCRF-CEM leukemia = system: CCRF-CEM leukemia
MALME-3M melanoma = system: MALME-3M melanoma
EKVX NSCLC = system: EKVX NSCLC
CAKI-1 renal = system: CAKI-1 renal
HOP-62 NSCLC = system: HOP-62 NSCLC
OVCAR-5 ovarian = system: OVCAR-5 ovarian
K-562 leukemia = system: K-562 leukemia
BT-549 breast = system: BT-549 breast

Measured: TGI

CN(C)CCNS(=O)(=O)N(C)C
> 100 µM: all assays above

NC1(P(=O)(O)O)CCCCC1
> 100 µM: all assays above
